Activity calls are given as the source filed them. No rule for the calls is given here.
Tested on: CCRIS mutagenicity, Ames/micronucleus/aberration tests
Test: CCRIS mutagenicity studies

`OC1C=C2c3ccc4ccccc4c3-c3cccc(c32)C1O` (stereo not given) was tested, and the mutagenic call (Test System: AMES SALMONELLA TYPHIMURIUM, Strain/Indicator: TA97A, Metabolic Activation: NONE, Method: PREINCUBATION) was “inactive; negative”, the mutagenic call (Test System: AMES SALMONELLA TYPHIMURIUM, Strain/Indicator: TA97A, Metabolic Activation: RAT, LIVER, S-9, AROCLOR 1254, Method: PREINCUBATION) was “active; positive” and the mutagenic call (Test System: AMES SALMONELLA TYPHIMURIUM, Strain/Indicator: TA98, Metabolic Activation: NONE, Method: PREINCUBATION) was “inactive; negative”. For the same compound, the mutagenic call (Test System: AMES SALMONELLA TYPHIMURIUM, Strain/Indicator: TA98, Metabolic Activation: RAT, LIVER, S-9, AROCLOR 1254, Method: PREINCUBATION) was “active; positive”, the mutagenic call (Test System: AMES SALMONELLA TYPHIMURIUM, Strain/Indicator: TA100, Metabolic Activation: NONE, Method: PREINCUBATION) was “active; positive” and the mutagenic call (Test System: AMES SALMONELLA TYPHIMURIUM, Strain/Indicator: TA100, Metabolic Activation: RAT, LIVER, S-9, AROCLOR 1254, Method: PREINCUBATION) was “active; positive”.
In the case of `CCCCOO`, the mutagenic call (Test System: AMES SALMONELLA TYPHIMURIUM, Strain/Indicator: TA100, Metabolic Activation: NONE, Method: STANDARD PLATE) is reported as “inactive; negative” and the mutagenic call (Test System: AMES SALMONELLA TYPHIMURIUM, Strain/Indicator: TA102, Metabolic Activation: NONE, Method: STANDARD PLATE) is reported as “active; positive”.
For `Nc1ccn(/C=C/C=O)c(=O)n1`, the mutagenic call (Test System: AMES SALMONELLA TYPHIMURIUM, Strain/Indicator: HISD3052, Metabolic Activation: NONE, Method: STANDARD PLATE) was “active; positive”.
With `O=[N+]([O-])C(Cl)(Cl)Br` the mutagenic call (Test System: Ames Salmonella typhimurium, Strain/Indicator: RSJ100, Metabolic Activation: None, Method: Standard plate) was “inactive; negative”, the mutagenic call (Test System: Ames Salmonella typhimurium, Strain/Indicator: RSJ100, Metabolic Activation: Rat, Liver, S-9, Aroclor, Method: Standard plate) was “active; positive” and the mutagenic call (Test System: Ames Salmonella typhimurium, Strain/Indicator: TA98, Metabolic Activation: None, Method: Standard plate) was “inactive; negative”. The mutagenic call (Test System: Ames Salmonella typhimurium, Strain/Indicator: TA98, Metabolic Activation: Rat, Liver, S-9, Aroclor, Method: Standard plate) was “inactive; negative”, the mutagenic call (Test System: Ames Salmonella typhimurium, Strain/Indicator: TA100, Metabolic Activation: None, Method: Standard plate) was “inactive; negative” and the mutagenic call (Test System: Ames Salmonella typhimurium, Strain/Indicator: TA100, Metabolic Activation: Rat, Liver, S-9, Aroclor, Method: Standard plate) was “inactive; negative”. The mutagenic call (Test System: Ames Salmonella typhimurium, Strain/Indicator: TA104, Metabolic Activation: None, Method: Standard plate) was “active; positive”, the mutagenic call (Test System: Ames Salmonella typhimurium, Strain/Indicator: TA104, Metabolic Activation: Rat, Liver, S-9, Aroclor, Method: Standard plate) was “active; positive” and the mutagenic call (Test System: Ames Salmonella typhimurium, Strain/Indicator: TPT100, Metabolic Activation: None, Method: Standard plate) was “inactive; negative”.
`C1=C2c3ccccc3CCC2CCC1` (stereo not given) was tested, and the mutagenic call (Test System: AMES SALMONELLA TYPHIMURIUM, Strain/Indicator: TA98, Metabolic Activation: RAT, LIVER, S-9, SODIUM PHENOBARBITAL AND BETA-NAPHTHOFLAVONE, Method: STANDARD PLATE) was “active; positive” and the mutagenic call (Test System: AMES SALMONELLA TYPHIMURIUM, Strain/Indicator: TA100, Metabolic Activation: RAT, LIVER, S-9, SODIUM PHEOBARBITAL AND BETA-NAPHTHOFLAVONE, Method: STANDARD PLATE) was “active; positive”.

Source: PubChem BioAssay AID1259407 (Chemical Carcinogenesis Research Information System (CCRIS), 2018)
